The source of these data is patent publication US20190284168A1, “PYRAZOLE DERIVATIES AS SGC STIMULATORS” (IRONWOOD PHARMACEUTICALS, INC., priority 2014, published 2019).

The subject of assay [1] is lambs with acute pulmonary hypertension. To be noted: cited from earlier work; for effect on mean arterial pressure / pulmonary vasodilation / transpulmonary cGMP release / systemic arterial oxygenation: inhaled microparticles, awake lambs; for effect on mean arterial pressure / pulmonary vasodilation / transpulmonary cGMP release: U-46619 infusion.
The target of assay [2] is T1, soluble guanylate cyclase (sGC) (Homo sapiens, UniProt Q02108+Q02153).
T1 construct: endogenously expressing soluble guanylate cyclase (sGC); endogenous in cells; host or cells: HEK293
T1 sequence (Q02153 1-619): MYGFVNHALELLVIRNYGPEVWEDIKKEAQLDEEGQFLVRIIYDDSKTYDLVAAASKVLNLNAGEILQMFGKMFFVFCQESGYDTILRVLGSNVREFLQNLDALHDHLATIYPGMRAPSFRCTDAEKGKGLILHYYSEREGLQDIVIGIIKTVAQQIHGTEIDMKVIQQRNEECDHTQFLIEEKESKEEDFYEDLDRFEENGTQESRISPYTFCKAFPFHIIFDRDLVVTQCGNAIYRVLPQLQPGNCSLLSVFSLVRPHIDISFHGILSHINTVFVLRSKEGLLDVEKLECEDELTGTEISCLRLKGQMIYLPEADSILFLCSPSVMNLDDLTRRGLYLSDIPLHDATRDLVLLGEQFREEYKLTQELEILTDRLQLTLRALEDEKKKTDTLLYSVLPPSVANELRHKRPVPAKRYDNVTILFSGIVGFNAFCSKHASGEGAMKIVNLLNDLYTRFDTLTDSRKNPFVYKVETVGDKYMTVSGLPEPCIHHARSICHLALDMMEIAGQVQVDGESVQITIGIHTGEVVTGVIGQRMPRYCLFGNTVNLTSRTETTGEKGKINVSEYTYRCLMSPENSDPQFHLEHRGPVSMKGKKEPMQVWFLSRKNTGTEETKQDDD
T1 sequence (Q02108 1-690): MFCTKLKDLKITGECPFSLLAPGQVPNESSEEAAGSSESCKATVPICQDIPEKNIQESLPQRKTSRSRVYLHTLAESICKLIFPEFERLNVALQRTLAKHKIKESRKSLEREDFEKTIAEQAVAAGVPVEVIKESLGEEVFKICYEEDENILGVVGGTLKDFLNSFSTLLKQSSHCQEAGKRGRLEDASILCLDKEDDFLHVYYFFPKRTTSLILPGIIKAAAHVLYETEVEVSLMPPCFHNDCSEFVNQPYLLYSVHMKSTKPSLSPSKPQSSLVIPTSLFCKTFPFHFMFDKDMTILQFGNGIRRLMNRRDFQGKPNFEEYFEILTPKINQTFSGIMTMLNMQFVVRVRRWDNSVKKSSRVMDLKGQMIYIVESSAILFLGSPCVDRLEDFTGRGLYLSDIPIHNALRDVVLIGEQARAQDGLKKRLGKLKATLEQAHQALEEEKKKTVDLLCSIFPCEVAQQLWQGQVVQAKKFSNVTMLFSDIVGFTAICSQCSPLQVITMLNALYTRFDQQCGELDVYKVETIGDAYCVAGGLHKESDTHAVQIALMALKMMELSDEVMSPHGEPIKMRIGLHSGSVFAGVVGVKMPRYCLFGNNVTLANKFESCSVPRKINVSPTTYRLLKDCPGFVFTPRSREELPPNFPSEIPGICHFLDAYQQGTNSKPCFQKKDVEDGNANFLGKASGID
In words: sGC-HEK-cGMP assay with LC/MS detection. Format: cell-based. The note with it: HEK293 whole cells, LC/MS detection of cGMP, 10 μM DETA-NONOate; 50% of high control response (30 μM Compound Y); read-out: Absolute EC50 (nM)- binned (~).
Experimental: Human embryonic kidney cells (HEK293), endogenously expressing soluble guanylate cyclase (sGC), were used to evaluate the activity of test compounds. Compounds stimulating the sGC enzyme should cause an increase in the intracellular concentration of cGMP. HEK 293 cells were seeded in Dulbecco's Modification of Eagle's Medium supplemented with fetal bovine serum (10% final) and penicillin (100 U/mL)/streptomycin (100 μg/mL) in a 50 μL volume at a density of 1.5×10^4 cells/well in a poly-D-lysine coated 384 well flat bottom plate. Cells were incubated overnight at 37° C. in a humidified chamber with 5% CO2. Medium was aspirated and cells were washed with 1× Hank's Buffered Saline Salt Solution (50 μL). Cells were then incubated for 15 minutes at 37° C. with 50 μL of a 0.5 mM 3-isobutyl-1-methylxanthine (IBMX) solution.
were then added to the assay mixture and the resulting mixture incubated at 37° C. for 20 minutes. After the 20 minute incubation, the assay mixture was aspirated and 10% acetic acid containing 150 ng/mL+3-cGMP (internal standard for LCMS) (50 μL) was added to the cells. The plate was incubated at 4° C. for 30 minutes in the acetic acid solution to stop the reaction and lyse the cells. The plates were then centrifuged at 1,000 g for 3 minutes at 4° C. and the supernatant transferred to a clean reaction plate for LCMS analysis.
cGMP concentrations were determined from each sample using the LCMS conditions below (Table 2) and calculated standard curve.
Data were fit using a 4-parameter fit (log(agonist) vs. response—variable slope) using GraphPad Prism Software v.5. n=2 for all compounds. […] Compounds failing to elicit a minimum response of 50% are reported as >30 μM.

For assay [3], the target named is T2, human recombinant soluble guanylate cyclase enzyme α1β1 (Homo sapiens, UniProt Q02108+Q02153).
T2 construct: purchased Enzo Life Sciences ALX-201-177
T2 sequence (Q02108 1-690): T1 sequence (Q02108 1-690)
T2 sequence (Q02153 1-619): T1 sequence (Q02153 1-619)
In words: Purified human recombinant sGC α1β1 enzyme assay in the presence of DETA-NONOate (cGMP HTRF). Format: biochemical. To be noted: 30 uM DETA NONOate; 50% of maximal response of 30 uM Compound Y; read-out: sGC_Enz_HTRF_a1b1 EC50/IC50 Abs (Norm) (nM) Binned. The procedure: Purified human recombinant soluble guanylate cyclase enzyme α1β1 (h sGC) obtained from Enzo Life Sciences (P/N: ALX-201-177) was used to evaluate the activity of test compounds. The assay reactions contained 0.1 M Tris (pH 8.0), 0.5 mg/mL BSA, 2 mM DTT, 4 mM MgCl2, 30 uM DETA NONOate (Enzo Life Science P/N: ALX-430-014), and 12.5 ng/ml human soluble guanylate cyclase enzyme. […] Guanosine 5'-triphosphate (Sigma-Aldrich P/N: […]) was added to a final concentration of 300 μM and enzyme reactions were incubated (100 μL, 384-well plate format) at 37° C. for 20 minutes. The controls contained 3% DMSO (low control), or 30 uM of Compound Y (high control). After the 20 minute incubation, the reaction was stopped with the addition of 100 μL of ice cold 20% acetic acid. cGMP concentrations in all samples were determined using the cGMP HTRF (Cisbio P/N: 62GM2PEC) assay per manufacturer's instructions. A cGMP standard curve was fit using a 4-parameter fit (log(inhibitor) vs. response-variable slope) using GraphPad Prism Software v.6. Samples were diluted appropriately to ensure that values fell within the linear range of the standard curve. Data were fit using a 4-parameter fit (log(agonist) vs. response-variable slope) using GraphPad Prism Software v.6. The EC50 was interpolated from the curve fit and is defined as the concentration at which the compound elicits 50% of the maximal response of the 30 uM of Compound Y, the high control compound.

Turning to `Nc1nc(-c2nn(Cc3ccccc3F)c3ncccc23)ncc1C1CC1` [BAY 41-2272], in assay [1], the “effect on mean arterial pressure” value is listed as “without significant effect”, the pulmonary vasodilation entry is “dose dependent pulmonary vasodilation” and the “transpulmonary cGMP release” value is listed as “increased”.
Regarding `Nc1nc(-c2nn(Cc3ccccc3F)c3ncccc23)nc(N)c1N1CCOCC1` [BAY 41-8543], the “magnitude and duration of pulmonary vasodilation induced by iNO” value in assay [1] (after inhaling microparticles, combined with iNO) is given as “augmented”. Moreover, in assay [1], the “effect on mean arterial pressure” value is “without significant effect”, the pulmonary vasodilation entry was “dose dependent pulmonary vasodilation”, the “transpulmonary cGMP release” value is listed as “increased” and the systemic arterial oxygenation result was “increased”.
With `O=C(O)CCCCN(CCc1ccccc1OCc1ccc(CCc2ccccc2)cc1)Cc1ccc(C(=O)O)cc1` [BAY 58-2667], in assay [1] (inhaled microparticles after ODQ), the “pulmonary vasodilation and transpulmonary cGMP release after treatment with ODQ” value is reported as “greatly enhanced”. Moreover, in assay [1], the “effect on mean arterial pressure” value was “without significant effect”, the pulmonary vasodilation result was “dose dependent pulmonary vasodilation”, the “transpulmonary cGMP release” value is given as “increased” and the systemic arterial oxygenation result is on record as “increased”.
With `O=S1(=O)Cc2cnc(-c3cc(-c4ccon4)n(Cc4ccccc4F)n3)nc2C1` [Compound 3], the EC50 is more than 30000 nM in assay [2] and not above 1000 nM in assay [3].
In the same order, the values of `NC(=O)C(=O)Nc1ccnc(-c2cc(-c3ccon3)n(Cc3ccccc3F)n2)n1` [Compound 4] are more than 1000 nM and not above 1000 nM.
Consider `Fc1ccccc1Cn1nc(-c2ncc(F)c(Nc3nnc(C(F)(F)F)s3)n2)cc1-c1ccon1` [Compound 11], for which the EC50 in assay [2] was more than 1000 nM; in assay [3] it was not above 1000 nM.
Consider `NC(=O)CC(=O)Nc1ccnc(-c2cc(-c3ccon3)n(Cc3ccccc3F)n2)n1` [Compound 17], for which the EC50 in assay [2] is more than 30000 nM; in assay [3] it was not above 1000 nM.
Regarding `O=C(Nc1ccnc(-c2cc(-c3ccon3)n(Cc3ccccc3F)n2)n1)c1cc(O)no1` [Compound 27], the EC50 in assay [2] was more than 1000 nM; in assay [3] it was not above 1000 nM.
On to `O=C(CCl)NCC(=O)Nc1ccnc(-c2cc(-c3ccon3)n(Cc3ccccc3F)n2)n1` [Compound 32], for which the EC50 in assay [2] and in assay [3] was 100 to 1000 nM throughout.
As for `Fc1ccccc1Cn1nc(-c2ncc(N3CCOCC3)cn2)cc1-c1ccon1` [Compound 37], the EC50 in assay [2] was more than 30000 nM; in assay [3], not above 1000 nM.
As to `O=C(O)Cc1cn(-c2nc(-c3cc(-c4ccon4)n(Cc4ccccc4F)n3)ncc2F)[nH]c1=O` [Compound 38], the EC50 in assay [2] was 100 to 1000 nM; in assay [3], not above 1000 nM.
`O=C(O)Cc1c[nH]n(-c2nc(-c3cc(-c4ccon4)n(Cc4ccccc4F)n3)ncc2F)c1=O` [Compound 39]: the EC50 is more than 1000 nM in assay [2] and not above 1000 nM in assay [3].
Take `Oc1nnc2n1CCN(c1nc(-c3cc(-c4ccon4)n(Cc4ccccc4F)n3)ncc1F)C2` [Compound 44]: the EC50 in assay [2] was less than 100 nM; in assay [3], 100 to 1000 nM.
In the same order, the values of `O=C(Cc1c[nH]nc1O)Nc1ccnc(-c2cc(-c3ccon3)n(Cc3ccccc3F)n2)n1` [Compound 45] are more than 1000 nM and not above 1000 nM.
Consider `CS(=O)(=O)C1(C(=O)Nc2ccnc(-c3cc(-c4ccon4)n(Cc4ccccc4F)n3)n2)CC1` [Compound 50], for which the EC50 was more than 1000 nM in assay [2] and not above 1000 nM in assay [3].
As for `Cn1c(=O)c(CC(N)=O)cn1-c1nc(-c2cc(-c3ccon3)n(Cc3ccccc3F)n2)ncc1F` [Compound 56], the EC50 in assay [2] is more than 1000 nM; in assay [3], not above 1000 nM.
Turning to `O=C(O)C1Cn2c(nnc2C(F)(F)F)CN1c1nc(-c2cc(-c3ccon3)n(Cc3ccccc3F)n2)ncc1F` (centres unmarked) [Compound 62], the EC50 in assay [2] is more than 1000 nM; in assay [3], not above 1000 nM.
With `CC(=O)c1cc(-c2ncc(F)c(N3CCS(=O)(=O)CC3)n2)nn1Cc1ccccc1F` [Compound 78], the EC50 was more than 1000 nM in assay [2] and not above 1000 nM in assay [3].
For `CC(=O)c1cc(-c2ncc(F)c(O)n2)nn1Cc1cccc(F)c1F` [Compound 83], the figures for the EC50 in assay [2] and in assay [3] were more than 1000 nM and not above 1000 nM, respectively.
For `CC(=O)c1cc(-c2ncc(F)c(NCC(=O)O)n2)nn1Cc1ccccc1F` [Compound 86], the EC50 in assay [2] is more than 1000 nM; in assay [3] it was not above 1000 nM.
In the same order, the values of `C[C@](N)(CNc1nc(-c2cc(-c3ccon3)n(Cc3ccccc3F)n2)ncc1F)C(F)(F)F` [Compound 108] are 100 to 1000 nM and 100 to 1000 nM.
As for `O=c1onc2cnc3ccccc3n12` [ODQ, 1H-[1,2,4]oxadiazolo[4,3-a]quinoxalin-1-one], the “pulmonary vasodilator effect of iNO” value in assay [1] (intravenous administration) is given as “markedly reduced”.
